According to patent US20190374533A1, “COMPOUNDS AND METHODS FOR INHIBITING NHE-MEDIATED ANTIPORT IN THE TREATMENT OF DISORDERS ASSOCIATED WITH FLUID RETENTION OR SALT OVERLOAD AND GASTROINTESTINAL TRACT DISORDERS” (Ardelyx, Inc., priority 2008, published 2019):
Where a name gives a salt, the structure may show the parent alone. Read-outs that look alike come from different tables or passages of the source.

What was measured:
[1] = target: T1, human NHE3 (Homo sapiens, UniProt P48764); assay: Cell-based assay of NHE-3 activity (pre-incubation inhibition), human; conditions: human Preincubation assay; for IC50: PS120 fibroblasts expressing human NHE3 and NHERF2, 0-30 μM test compound
T1 construct: host or cells: PS120 fibroblasts
T1 sequence (P48764 26-834): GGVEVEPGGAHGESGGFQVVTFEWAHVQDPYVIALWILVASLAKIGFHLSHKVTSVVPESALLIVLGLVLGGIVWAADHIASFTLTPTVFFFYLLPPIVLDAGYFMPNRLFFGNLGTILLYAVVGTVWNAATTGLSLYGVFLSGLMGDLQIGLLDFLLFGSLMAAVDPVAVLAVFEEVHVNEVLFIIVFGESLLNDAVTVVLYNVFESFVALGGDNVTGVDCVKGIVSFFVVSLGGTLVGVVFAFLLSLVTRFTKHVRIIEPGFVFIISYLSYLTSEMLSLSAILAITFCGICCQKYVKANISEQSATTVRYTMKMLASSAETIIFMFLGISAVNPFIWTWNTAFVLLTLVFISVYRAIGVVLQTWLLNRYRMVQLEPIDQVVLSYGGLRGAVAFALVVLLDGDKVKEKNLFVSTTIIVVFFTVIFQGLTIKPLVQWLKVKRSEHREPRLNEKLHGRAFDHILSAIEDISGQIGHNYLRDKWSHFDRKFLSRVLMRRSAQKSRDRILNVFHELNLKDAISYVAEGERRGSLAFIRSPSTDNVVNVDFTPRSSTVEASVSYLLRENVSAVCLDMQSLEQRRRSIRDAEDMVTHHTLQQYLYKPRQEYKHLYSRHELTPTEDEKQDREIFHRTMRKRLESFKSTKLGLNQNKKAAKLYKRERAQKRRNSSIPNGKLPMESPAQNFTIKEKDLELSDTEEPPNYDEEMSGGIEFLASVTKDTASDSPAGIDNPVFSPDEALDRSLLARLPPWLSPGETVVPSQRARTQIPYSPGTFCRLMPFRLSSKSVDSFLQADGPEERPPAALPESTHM
T1 sequence (Q99653 2-195 partner limits assumed): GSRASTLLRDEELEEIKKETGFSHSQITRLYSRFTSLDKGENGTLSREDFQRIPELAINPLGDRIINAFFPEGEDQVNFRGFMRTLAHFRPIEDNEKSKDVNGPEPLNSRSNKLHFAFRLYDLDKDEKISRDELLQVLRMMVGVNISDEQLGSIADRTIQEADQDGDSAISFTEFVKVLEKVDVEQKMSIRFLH
Procedure: Rat and human NHE-3-mediated Na^+-dependent H^+ antiport was measured using a modification of the pH sensitive dye method originally reported by Paradiso (Proc. Natl. Acad. Sci. USA. (1984) 81(23): 7436-7440). PS120 fibroblasts stably expressing human NHE3 and NHERF2 were obtained from Mark Donowitz (Baltimore, Md.). Opossum kidney (OK) cells were obtained from the ATCC and propagated per their instructions. The rat NHE-3 gene (GenBank M85300) was introduced into OK cells via electroporation, and cells were seeded into 96 well plates and grown overnight. Medium was aspirated from the wells then incubated for 30 min at 37° C. with NH4Cl-HEPES buffer (20 mM NH4Cl, 80 mM NaCl, 50 mM HEPES, 5 mM KCl, 2 mM CaCl2, 1 mM MgCl2, pH 7.4) containing 5 μM BCECF-AM. Cells were washed once with Ammonium free, Na^+-free HEPES (100 mM choline, 50 mM HEPES, 10 mM glucose, 5 mM KCl, 2 mM CaCl2, 1 mM MgCl2, pH 7.4) and incubated in the same buffer for 10 minutes at room temperature to lower intracellular pH with 0-30 μM test compound. […] Changes in intracellular pH were monitored using a FLIPR Tetra® (Molecular Devices, Sunnyvale, Calif.) by excitation at λex 439 to 505 nm, and measuring BCECF fluorescence at λem 538 nm. The initial rate of the fluorescence ratio change was used as a measure of NHE-mediated Na^+/H^+ activity, and reported as the change in fluorescence ratio per minute.

[2] = test system: absorption of sodium from the intestinal lumen; assay: Inhibition of intestinal sodium absorption in mice; assay type: in vivo, mouse; conditions: CD-1 mice, 15 mg/kg oral gavage twice daily for 3 days
[3] = Determination of compound remaining in feces; assay type: in vivo, rat; conditions: 0.1 mg/kg oral gavage; for recovery in 72-hour fecal samples: three rats; for dose excreted: Sprague-Dawley, rat, faeces, po, 0.1 mg/kg, read-out: % Recovery ± SD from 72-hour fecal samples
Procedure: Sprague-Dawley rats were orally gavaged with test article. A low dose of compound (0.1 mg/kg) was selected so that feces would remain solid and practical to collect. For both Examples 202 and 203, three rats were dosed, and following dosage of compounds, the rats were placed in metabolic cages for 72 hours. After 72 hours, fecal samples were recovered and dried for 48 hours. Dried fecal samples were ground to a powdered from, and for each rat, 10 replicates of 50 mg samples were extracted with acetonitrile. Insoluble materials were removed by centrifugation and supernatants analyzed by LC/MS/MS and compared against a standard curve to determine compound concentration. The amount of compound actually dosed was determined by LC/MS/MS analysis of the dosing solutions. The total amount of compound present in the 72-hour fecal samples was compared to the total amount of compound dosed, and reported as percentage of total dose recovered.

[4] = target: T2, NHE3 (Homo sapiens, UniProt P48764); assay: Sustained inhibition of apical acid secretion in human organoid monolayer cell cultures (duodenum); assay type: cell-based; conditions: 1 μM apical
T2 construct: due to the increase in NHE3 expression after differentiation; endogenous in cells; host or cells: human ileum / duodenum organoid-derived monolayers
T2 sequence (P48764 26-834): T1 sequence (P48764 26-834)

[5] = test system: gastrointestinal motility; assay: Restoration of gastrointestinal motility in opioid induced constipation (loperamide); assay type: in vivo, mice; conditions: 15 mg/kg oral gavage, loperamide s.c., Evans Blue dye front after 30 minutes
[6] = day 3, normalized to dietary sodium intake

| Structure (SMILES) | % inhibition [1] | IC50 [1] [nM] | Fecal fluid content (Δ from vehicle) ([2]; day 3) | Fecal Na Excretion (% of vehicle) [2, 6] | Urinary Na Excretion (% of vehicle) [2, 6] | recovery in 72-hour fecal samples [3] | dose excreted ([3]; Rat 1) [%] | dose excreted ([3]; Rat 2) [%] | dose excreted ([3]; Rat 3) [%] | % inhibition (duodenum) [4] | % Restoration of Transit [5] |
| --- | --- | --- | --- | --- | --- | --- | --- | --- | --- | --- | --- |
| CN1Cc2c(Cl)cc(Cl)cc2[C@H](c2cccc(S(=O)(=O)NCCOCCOCCNC(=O)Nc3ccc(NC(=O)NCCOCCOCCNS(=O)(=O)c4cccc([C@@H]5CN(C)Cc6c(Cl)cc(Cl)cc65)c4)cc3)c2)C1 (single isomer, unassigned) [Example 203, (S or R)—N,N′-(2,2′-(2,2′-(2,2′-(1,4-phenylenebis(azanediyl))bis(oxomethylene)bis(azanediyl)bis(ethane-2,1-diyl))bis(oxy)bis(ethane-2,1-diyl))bis(oxy)bis(ethane-2,1-diyl))bis(3-((S or R)-6,8-dichloro-2-methyl-1,2,3,4-tetrahydroisoquinolin-4-yl)benzenesulfonamide) bis-hydrochloride salt] | C (>70%) | < 100 | C (>10) | C (>200%) | C (<50%) | near quantitative recovery | 100 ± 6.7 | 75.8 ± 8.2 | 104 ± 7.1 | – | – |
| CN1Cc2c(Cl)cc(Cl)cc2[C@H](c2cccc(S(=O)(=O)NCCOCCOCCNC(=O)NCCCCNC(=O)NCCOCCOCCNS(=O)(=O)c3cccc([C@@H]4CN(C)Cc5c(Cl)cc(Cl)cc54)c3)c2)C1 (single isomer, unassigned) [Example 202, (S or R)—N,N′-(10,17-dioxo-3,6,21,24-tetraoxa-9,11,16,18-tetraazahexacosane-1,26-diyl)bis(3-((S)-6,8-dichloro-2-methyl-1,2,3,4-tetrahydroisoquinolin-4-yl)benzenesulfonamide) bis-hydrochloride salt] | C (>70%) | < 100 | – | – | – | near quantitative recovery | 93.8 ± 11.8 | 90.5 ± 5.5 | 92.4 ± 10.6 | C (>70%) | C (>40%) |
